“Also recorded” adds a separate entry of the source.
How the values were obtained:
[1] = test system: human dermal microvascular endothelial cells (HMVECs); assay: In vitro endothelial cell permeability assay (passage of FITC-dextran through HMVEC monolayer); format: cell-based
Description: Permeability Assays. In vitro permeability assay was performed as previously described (48). Briefly, HMVEC were seeded on collagen-coated transwells ([…], PTFE; Corning), and allowed to grow as a 3-d-old mature monolayer. Following overnight starvation, 500 μL and 100 μL of conditioned medium were added for 30 min (37° C.) to the bottom and top chamber, respectively. A total of 100 μL of 1 mg/mL FITC dextran (molecular weight=40,000; Invitrogen) was added for 30 min. Fluorescence was quantified using a SpectraMax M5 Microplate Reader (Molecular Devices) with excitation at 494 nm and emission at 521 nm.

inner retina vessels [2] = assay: OIR mouse model: vascular permeability / retinal edema (inner retinal cysts, extravascular albumin); format: in vivo; conditions: P13 OIR mice, digoxin 2 mg/kg daily intraperitoneal
Description: (§1) Oxygen-Induced Retinopathy (OIR). […] At P12 the mice were returned to room air.
(§2) Quantitation of vascular permeability in the retina was assessed by examining 4 high powered fields of the posterior retina from three animals and counting the number of CD31-labled inner retina vessels in the posterior retina that had visible adjacent extravascular albumin (detected by immunofluorescence) as a percent of the total vessels in each field.
(§3) Immunohistochemistry and Immunofluorescence. Immunohistochemical detection of extravascular albumin (Cedarlane-Nordic) was performed on cryopreserved mouse tissue sections using a nitroblue tetrazolium (NBT) development system using Streptavidin alkaline phosphatase (APase) as previously described (53) Immunohistochemical detection of HIF-1 alpha (Abcam), human and murine ANGPTL4 (Abcam and Lifespan BioSciences, respectively), VEGF (Santa Cuz), CD34 (Covance), and GFAP (Sigma) were performed in paraffin embedded human tissue (obtained from the Wilmer Eye Institute Ocular Pathology Archives with approval from the Johns Hopkins School of Medicine Internal Review Board) and mice cryopreserved tissue using ABC system (Dako) as previously described (4).

GFAP = assay: OIR mouse model: GFAP expression in Müller cells; format: in vivo; conditions: OIR mice, administration of digoxin
Source text: as §1

Angptl4 [3] = assay: OIR mouse model: RT-PCR of Angptl4 mRNA in neurosensory retina; format: in vivo; conditions: OIR mice P12-P14, daily intraperitoneal digoxin
Description: as §1
(§4) Quantitative Real-Time RT-PCR. RNA was isolated from culture cells or retinas with RNeasy Mini Kit (Qiagen) and cDNA prepared using MuLV Reverse Transcriptase (Applied Biosystems, Carlsbad, Calif.). Quantitative real-time PCR was performed with Power SYBR Green PCR Master Mix (Applied Biosystems) and MyiQ Real-Time PCR Detection System (Bio Rad). Normalization was done using cyclophilin A for mouse tissue and cell lines and β-actin for human cell lines. Primers for qPCR include: human VEGF, forward—[…] (SEQ ID NO:1) and reverse—[…] (SEQ ID NO:2); human ANGPTL4, forward—[…] (SEQ ID NO:3) and reverse—[…] (SEQ ID NO:4); human β-actin, forward—[…] (SEQ ID NO:5) and reverse—[…](SEQ ID NO:6); mouse VEGF, forward—[…] (SEQ ID NO:7) and reverse—[…](SEQ ID NO:8); mouse ANGPTL4, forward—[…] (SEQ ID NO:9) and reverse—[…] (SEQ ID NO:10); mouse cyclophilin A, forward—[…] (SEQ ID NO:11) and reverse—[…] (SEQ ID NO:12).

Vegf [4] = assay: OIR mouse model: RT-PCR of Vegf mRNA in neurosensory retina; format: in vivo; conditions: OIR mice P12-P14, daily intraperitoneal digoxin
Description: as §1, §4

VEGF [5] = assay: MIO-M1 Müller cells: VEGF mRNA (RT-PCR) and secreted protein (ELISA); format: cell-based, human; conditions: digoxin 100 nM, 2 hours prior to hypoxia; 8 hours hypoxia
Description: (§5) Cell Culture and Reagents. MIO-M1 cells were a generous gift from Astrid Limb (University College London Institute of Ophthalmology). Isolation of primary Müller cells was performed as previously described (51). Primary human dermal microvascular endothelial cells (HMVEC) were obtained from Lonza and cultured according the manufacter's protocols. Recombinant ANGPTL4 and VEGF, and ANGPTL4 and VEGF ELISA kits were obtained from R&D Systems. The KDR inhibitor, SU1498, and rapamycin were obtained from Calbiochem. Digoxin was obtained from Sigma. Predesigned control (Scrambled) and ANGPTL4 and HIF-1β siRNA sequences were obtained from Qiagen. AdLacZ and AdCAS have been previously described (26).
(§6) Quantitative Real-Time RT-PCR. RNA was isolated from culture cells or retinas with RNeasy Mini Kit (Qiagen) and cDNA prepared using MuLV Reverse Transcriptase (Applied Biosystems, Carlsbad, Calif.). Quantitative real-time PCR was performed with Power SYBR Green PCR Master Mix (Applied Biosystems) and MyiQ Real-Time PCR Detection System (Bio Rad). Normalization was done using cyclophilin A for mouse tissue and cell lines and β-actin for human cell lines. Primers for qPCR include: human VEGF, forward—[…] (SEQ ID NO:1) and reverse—[…] (SEQ ID NO:2); human ANGPTL4, forward—[…] (SEQ ID NO:3) and reverse—[…] (SEQ ID NO:4); human β-actin, forward—[…] […]

ANGPTL4 [6] = assay: MIO-M1 Müller cells: ANGPTL4 mRNA (RT-PCR) and protein (Western blot/ELISA); format: cell-based, human; conditions: digoxin pretreatment (100 ng as printed), 2 hours prior hypoxia
Description: as §5, §6

mouse ear vasculature = assay: Modified Miles assay, vascular permeability in the mouse ear; format: in vivo; conditions: intradermal injection of ANGPTL4 0.2 μg vs PBS
Description: In vivo permeability was assessed using a modified Miles assay as previously described (48). Briefly, Evan Blue dye was injected into mouse tail veins (200 μL of 12 mg/ml solution in PBS). After 5 minutes, animals were anesthetized using Tribromoethanol. 20 ul 0.2 ug VEGF or 0.2 ug ANGPTL4 was injected intradermally into the right ear (PBS was injected into left ear as a control). After 8 minutes, photographs were taken. Levels of Evans blue dye was then extracted from mouse ear in 1 mL of formamide at 55° C. for 16 hours and dye content quantified at 610 nm using a spectrophotometer (48).

angiogenesis = assay: Promotion of angiogenesis / NV in vitro and in vivo (Example 9, cornea pocket assay)
Source text: Cell Culture: ARPE19, human ES derived RPE cells, primary murine RPE cells. Rat: Subretinal lipid hydroperoxide CNV Model. Assays used included Cornea pocket assay, Western Blot and RT-PCR, and Immunohistochemistry and Immunofluorescence. Patient Samples: ELISA analysis of ANGPTL4 levels in aqueous humor.

inner retina vessels [7] = assay: Intravitreal injection of recombinant protein into the mouse eye: retinal vascular permeability; format: in vivo
Description: […]. Intraocular injections with 1 μl of rmVEGF or rmANGPTL4 (200 ng/ul) were performed with a nanofil syringe (World Precision Instruments) using a 36G beveled needle. Intraocular injections with 1 μl of AdLacZ or AdCAS (2×10^12 VP/mL) were performed with pulled-glass micropipettes and a Harvard pump microinjection apparatus as previously described (52).
as §2, §3

`CC(C)c1cc(/C=C(\C#N)C(=O)NCCCc2ccccc2)cc(C(C)C)c1O` [SU1498] was tested, and the “endothelial cell permeability promoted by 100 ng recombinant human VEGF” value ([1]; SU1498 5 μM pre-treatment of endothelial cells) was “completely blocked the induction of endothelial cell permeability; also recorded: abolishes the promotion of endothelial cell permeability by 100 ng of recombinant human VEGF” and the “endothelial cell permeability promoted by conditioned media from hypoxic MIO-M1 cells” value ([1]; SU1498 5 μM pre-treatment of endothelial cells, 8 hours hypoxia) was “only a partial inhibition of endothelial cell permeability; also recorded: only partially blocks the promotion of endothelial cell permeability”.

For `C[C@H]1O[C@@H](O[C@H]2[C@@H](O)C[C@H](O[C@H]3[C@@H](O)C[C@H](O[C@H]4CC[C@@]5(C)[C@H](CC[C@@H]6[C@@H]5C[C@@H](O)[C@]5(C)[C@@H](C7=CC(=O)OC7)CC[C@]65O)C4)O[C@@H]3C)O[C@@H]2C)C[C@H](O)[C@@H]1O` [digoxin], the “vascular permeability (inner retinal cysts, extravasated albumin)” value (inner retina vessels [2]) was “decrease in vascular permeability; also recorded: inhibits the increase in inner retinal cysts and extravasated albumin”, the GFAP expression (GFAP) was “not affected” and the “induction of Angptl4 mRNA” value (Angptl4 [3]) was “completely abolished the induction of Angptl4”. For the same molecule, the “induction of Vegf mRNA” value (Vegf [4]) was “only partially inhibited the induction of Vegf”, the “VEGF mRNA expression and protein secretion” value (VEGF [5]) was “inhibited VEGF mRNA expression and protein secretion; also recorded: inhibits” and the “ANGPTL4 RNA and protein induced by hypoxia” value (ANGPTL4 [6]) was “inhibited”. For the same molecule, the “endothelial cell permeability promoted by conditioned media from hypoxic MIO-M1 cells” value ([1]; MIO-M1 pre-treated with 100 nM digoxin 2 hours prior to 8 hour hypoxia) was “potently blocked the property of the conditioned media to promote an increase in endothelial cell permeability; also recorded: inhibits the promotion of endothelial cell permeability by hypoxic MIO-M1 cells”.

For VEGF, the endothelial cell permeability ([1]; VEGF 100 ng) was “promotes endothelial cell permeability”.

B1: ANGPTL4: Recombinant angiopoietin-like 4 protein obtained from R&D Systems (protein, UniProt Q9BY76 26-406, looked up)
Angiopoietin-related protein 4: GPVQSKSPRFASWDEMNVLAHGLLQLGQGLREHAERTRSQLSALERRLSACGSACQGTEGSTDLPLAPESRVDPEVLHSLQTQLKAQNSRIQQLFHKVAQQQRHLEKQHLRIQHLQSQFGLLDHKHLDHEVAKPARRKRLPEMAQPVDPAHNVSRLHRLPRDCQELFQVGERQSGLFEIQPQGSPPFLVNCKMTSDGGWTVIQRRHDGSVDFNRPWEAYKAGFGDPHGEFWLGLEKVHSITGDRNSRLAVQLRDWDGNAELLQFSVHLGGEDTAYSLQLTAPVAGQLGATTVPPSGLSVPFSTWDQDHDLRRDKNCAKSLSGGWWFGTCSHSNLNGQYFRSIPQQRQKLKKGIFWKTWRGRYYPLQATTMLIQPMAAEAAS
For B1, the endothelial cell permeability ([1]; recombinant human ANGPTL4 2.5 or 5 μg) was “potently induced endothelial cell permeability”, the endothelial cell permeability ([1]; recombinant human ANGPTL4 2.5 or 5 μg, listed as recombinant human ANGPTL4) was “promotes endothelial cell permeability” and the “vascular permeability (Evans blue dye, 610 nm)” value (mouse ear vasculature) was “remarkable increase in vascular permeability; also recorded: marked increase in dye”. For the same molecule, the promotion of angiogenesis (angiogenesis) was “promoted angiogenesis both in vitro and in vivo”.

B2: rmANGPTL4: recombinant murine ANGPTL4 injected intravitreally (protein, UniProt Q9Z1P8 24-410, looked up)
Angiopoietin-related protein 4: QGRPAQPEPPRFASWDEMNLLAHGLLQLGHGLREHVERTRGQLGALERRMAACGNACQGPKGKDAPFKDSEDRVPEGQTPETLQSLQTQLKAQNSKIQQLFQKVAQQQRYLSKQNLRIQNLQSQIDLLAPTHLDNGVDKTSRGKRLPKMTQLIGLTPNATHLHRPPRDCQELFQEGERHSGLFQIQPLGSPPFLVNCEMTSDGGWTVIQRRLNGSVDFNQSWEAYKDGFGDPQGEFWLGLEKMHSITGNRGSQLAVQLQDWDGNAKLLQFPIHLGGEDTAYSLQLTEPTANELGATNVSPNGLSLPFSTWDQDHDLRGDLNCAKSLSGGWWFGTCSHSNLNGQYFHSIPRQRQERKKGIFWKTWKGRYYPLQATTLLIQPMEATAAS
With B2 the “inner retinal cysts (H & E)” value (inner retina vessels [7]; 200 ng rmANGPTL4 intravitreal vs PBS) was “increased inner retinal cysts”, the “extravasation of albumin (immunohistochemistry)” value (inner retina vessels [7]; 200 ng rmANGPTL4 intravitreal vs control) was “extravasation of albumin” and the “vascular permeability (leakage of plasma and albumin)” value (inner retina vessels [7]; rmANGPTL4 intravitreal, retinas after 48 hours) was “marked and statistically significant increase in vascular permeability”.
